Measurements taken from paper PMC4032254, “Targeting of the MYCN Protein with Small Molecule c-MYC Inhibitors” (PLoS ONE, 2014).

How the values were obtained:
[1] = biological target: T1, bHLHZip domain of human c-MYC (353–437) (Homo sapiens, UniProt P01106); assay: Surface plasmon resonance binding to bHLHZip of c-MYC; conditions: SPR, 25°C, steady state, mean ± SD
T1 construct: N-terminally His-tagged bHLHZip c-MYC (353–437) and bHLHZip MYCN (380–464) proteins were over-expressed in E. coli BL21 (DE3); made in house; host or cells: E. coli BL21 (DE3)
Description: (§1) For all SPR binding measurements the compounds were injected at increasing concentrations.
(§2) In order to determine the affinity of the compounds to c-MYC and MYCN, the response for each small molecule was plotted against the analyte (compound) concentration. The KD was defined as the concentration of analyte at 50% of the experimental maximal Response (Rmax). Approximate KD-values could be determined for all compounds except for #764. […] In summary, all active c-MYC inhibitors tested were also found to bind directly to MYCN.
N-terminally His-tagged bHLHZip c-MYC (353–437) and bHLHZip MYCN (380–464) proteins were over-expressed in E. coli BL21 (DE3) bacteria (Stratagene) at 37°C in LB media with kanamycin. Cultures were induced with Isopropyl β-D-1-thiogalactopyranoside (0,1 mg/ml) at an OD of 0.6 and harvested after 4 hours. […] Protein concentrations were determined by SDS-page comparing purified proteins to a standard curve of BSA loaded on the gel.
(§3) Surface Plasmon Resonance (SPR) experiments were performed using a Biacore T200 (GE Healthcare) instrument at 25°C. […] The obtained data was analyzed by the Biacore T200 Evaluation Software 2.0 (GE Healthcare). […]

[2] = biological target: T2, bHLHZip domain of human MYCN (380–464) (Homo sapiens, UniProt P04198); assay: Surface plasmon resonance binding to bHLHZip of MYCN; conditions: SPR, 25°C, steady state, mean ± SD
T2 construct: N-terminally His-tagged bHLHZip c-MYC (353–437) and bHLHZip MYCN (380–464) proteins were over-expressed in E. coli BL21 (DE3); made in house; host or cells: E. coli BL21 (DE3)
Description: as §1, §2
N-terminally His-tagged bHLHZip c-MYC (353–437) and bHLHZip MYCN (380–464) proteins were over-expressed in E. coli BL21 (DE3) bacteria (Stratagene) at 37°C in LB media with kanamycin. Cultures were induced with Isopropyl β-D-1-thiogalactopyranoside (0,1 mg/ml) at an OD of 0.6 and harvested after 4 hours. After sonication of the proteins in 50 mM NaH2PO4, 100 mM NaCl and 10 mM Tris-HCl (pH = 8,0) for 6×30 seconds, the pellet was resuspended in 100 mM NaH2PO4, 10 mM Tris-HCl, 10 mM imidazole and 8 M urea (pH = 8,0) prior to additional sonication for 6×30 seconds. The proteins were then loaded onto a Ni-Sepahrose High Performance His-Trap column (GE Healthcare), washed with ten column volumes of 100 mM NaH2PO4, 10 mM Tris-HCl, 40 mM imidazole and 8 M urea (pH = 8,0) and finally eluted with two column volumes 100 mM NaH2PO4, 10 mM Tris-HCl, 500 mM imidazole and 8 M urea (pH = 8,0). Fractions without visible higher molecular mass contaminations, as judged by SDS-page, were pooled and refolded by dialysis in 50 mM NaH2PO4, 100 mM NaCl, 10 mM Tris-HCl (pH = 8,0), 5 mM EDTA, 2 mM DTT and decreasing concentrations of urea (6 M, 4 M, 2 M and 0 M). […] Protein concentrations were determined by SDS-page comparing purified proteins to a standard curve of BSA loaded on the gel.
as §3

MYCN/MAX interaction = biological target: T3, MYCN/MAX interaction (Homo sapiens, UniProt P04198); assay: Proximity ligation assay (PLA) for MYCN/MAX interaction in SMS-KCN69n cells; assay type: cell-based; conditions: for effect on MYCN/MAX interaction (PLA): 6 hours treatment, compared to DMSO
T3 construct: endogenous in cells; host or cells: SMS-KCN69n (human MYCN-amplified neuroblastoma)
T3 sequence (P04198 1-464): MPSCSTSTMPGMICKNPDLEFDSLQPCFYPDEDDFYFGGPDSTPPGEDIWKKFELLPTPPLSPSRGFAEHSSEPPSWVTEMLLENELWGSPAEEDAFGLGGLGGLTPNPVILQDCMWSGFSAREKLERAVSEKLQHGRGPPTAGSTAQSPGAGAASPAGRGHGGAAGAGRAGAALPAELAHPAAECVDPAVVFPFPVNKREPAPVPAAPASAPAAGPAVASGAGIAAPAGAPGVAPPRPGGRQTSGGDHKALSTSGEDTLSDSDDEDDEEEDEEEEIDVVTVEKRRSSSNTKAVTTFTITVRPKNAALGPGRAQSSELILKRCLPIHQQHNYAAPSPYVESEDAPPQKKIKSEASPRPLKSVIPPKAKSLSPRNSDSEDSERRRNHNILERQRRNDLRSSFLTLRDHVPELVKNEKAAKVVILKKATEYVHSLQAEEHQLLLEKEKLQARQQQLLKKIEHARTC
From the text: To investigate if the other small molecules also have an effect on MYCN/MAX dimerization we performed a proximity ligation assay (PLA) using MYCN-amplified SMS-KCN69n NB cells. […] No signal was detected in any of the experimental negative controls (Figure S4).
Figure 3 Reduction of MYCN/MAX interaction in NB cells after treatment with small molecules. A) Proximity ligation assay (PLA) for MYCN/MAX interaction after treatment of SMS-KCN69n cells with the different small molecules at the indicated concentrations for 6 hours. […] DNA is stained with DAPI. Scale bar: […]. The pictures are representative from three independent experiments. B) Quantification of the PLA signals per cell after treatment with the different compounds. Error bars indicate standard error of the mean.
40×10^3 SMS-KCN69n cells were seeded on collagen coated coverslips and grown for 24 hours and treated for 6 hours the next day. After 6 hours the cells were washed in PBS and treated as previously described. The PLA assay was performed after manufacturer's instructions with the Duolink kit (Olink, Uppsala, Sweden). The cells were incubated with primary antibody against MYCN (NCMII100, St Cruz Bio) 1∶500 and Max (C-17, St Cruz Bio) 1∶500 for 1 hour in a humidity chamber at 37°C, which were diluted in antibody diluent provided by the manufacturer. MYCN (1∶500) and FAS (A-20, St Cruz Bio) 1∶500 as well as MAX (1∶500) and GFP (C-2, St Cruz Bio) 1∶500 antibodies were used in combination in order to test for any unspecific binding of the secondary antibodies or unspecific signals. […]
The confocal images of the cells were acquired at 63× magnification using a motorized axiovert fluorescence microscope 200 M LCI (Zeiss GmBH, Göttingen, Germany) including a CSU10 Yokogawa head; a multilens/multipinhole array aperture (Yokogawa, Japan), an ORCA ER cold CCD camera; detector array 1344×1024px (Hammamatsu, Japan) and two continuous wave diode-pumped solid-state (DPSS) lasers for fluorescence excitation (Cobolt, Sweden); Cobolt Calypso 491 nm DPSS (excitation of green PLA fluorophore) and Cobolt Jive 561 nm DPSS (excitation of Alexa Fluor 568). […] A total amount of at least 120 cells were analyzed for all compounds. The PLA signals were analyzed using the open source image analysis program Image J (NIH, Bethseda, USA) and the amount of PLA signal per cell was calculated. Two persons analyzed the images independently in a blind fashion.
In order to quantify the PLA signal from the total z-depth of each cell confocal z-stacks was projected in z and identically processed regarding background subtraction. The PLA signal was then quantified blindly and automatically using a find maxima-based algorithm in ImageJ (plugin routine developed by Dr. E. Flaberg and Professor L. Szekely, KI and available upon request). […]

MYCN protein levels = assay: Western blot of MYCN protein levels in SK-N-BE(2) cells; assay type: cell-based, human; conditions: 48 hours
Description: In order to determine the effect of the other compounds analyzed in this study on the MYCN protein levels, SK-N-BE(2) NB cells were treated with as a high concentration of each compound as possible without resulting in excessive cell death. […] Membranes were probed with antibodies recognizing MYCN and GAPDH. The blots are representative from three independent experiments. Whole cell extracts were prepared and lysed using RIPA-buffer. Western blot analysis was performed as previously described. In brief, membranes were probed with a mouse anti-MYCN antibody (B8.4.B, St Cruz Bio), MAX antibody (C-2, St Cruz Bio) and an HRP-conjugated anti-mouse antibody (DAKO) was used as secondary antibody. The membranes were developed using enhanced chemiluminescence substrate (ECL, Amersham).

Kelly cells [3] = assay: Crystal violet growth inhibition assay in Kelly cells; assay type: cell-based, human; conditions: 48 h treatment
From the text: Error bars indicate standard deviation. […] Error bars indicate standard deviation.

Tet21N cells = assay: Apoptosis in Tet21N cells with doxycycline regulated MYCN expression; assay type: cell-based, human; conditions: 48 hour treatment
From the text: GAPDH was used as loading control. […] Error bars indicate standard error. (TIF) Click here for additional data file.

[4] = system: xenograft models of prostate cancer; conditions: cited from earlier work
TH-MYCN transgenic mice = system: TH-MYCN transgenic mice; parameters: method as in PMID 23733953; conditions: cited from earlier work
NB xenografts = system: NB xenografts; parameters: method as in PMID 23733953; conditions: cited from earlier work
SK-N-BE(2) cells [5] = assay: Apoptosis, propidium iodide sub G1 DNA content, SK-N-BE(2); assay type: cell-based, human
Description: (§4) Figure 5 Growth inhibition and apoptosis induction in MYCN amplified cells. (A) The amount of viable of cells was determined using crystal violet assay following 48 hours treatment of Kelly cells with increasing concentration of the indicated compound. Data are shown as percent of control (DMSO) treated cells and represent the mean of three independent experiments. Error bars indicate standard deviation. (B) Pearson's correlation between the IC50 values in the growth inhibition assay (A, Table 2) and the KD values for binding to MYCN (Table 1). (C–D) Quantification of apoptosis by propidium iodide staining for sub G1 DNA content of SK-N-BE(2) (C) and Kelly (D) cells. Data represent the means of at least three independent experiments. Error bars indicate standard deviation. We next investigated the level of apoptosis induction in response to treatment with the molecules using two different MNA NB cell lines (Figure 5C, D). […] To verify the MYCN specificity in apoptosis induction, we next used Tet21N NB cells with doxycycline regulated MYCN expression. […] Small molecule-induced apoptosis was scored by quantifying the sub-G0/G1 fraction of the cell cycle. […] Cells were stained with propidium iodide solution (5 µg/ml propidium iodide and 25 µg/ml RNase A in PBS) for 30 min at 37°C and analyzed in a FACScan flow cytometer (Becton Dickinson). […]

Kelly cells [6] = assay: Apoptosis, propidium iodide sub G1 DNA content, Kelly; assay type: cell-based, human
Description: as §4

SK-N-BE(2) cells [7] = assay: Neuronal differentiation of NB cells (neurite outgrowth); assay type: cell-based, human; conditions: sub-lethal concentrations, 14-15 days
Description: SK-N-BE(2) cells were grown for 15 days in 6 well-plates and treated twice per week with DMSO or compound, with and without NGF. Differentiation was assessed based on number and length of neuronal outgrowths using a phase contrast microscope (Axiovert 40 CFL, Zeiss) and the Axiovision Rel. 4.8 software.
Phase contrast micrographs show representative pictures from one out of 3 to 5 independent experiments.

SK-N-BE(2) cells [8] = assay: Oil Red O staining of lipids; assay type: cell-based, human; conditions: sub-lethal concentrations, 3 days
Description: To explore the effect on lipid accumulation of the small molecules studied here cells were treated with sub-lethal concentrations of the compounds and stained with Oil Red O in order to detect lipids.
SK-N-BE(2) cells grown on cover slips were fixed in 4% PFA, washed in PBS and then in 60% isopropanol before staining with filtered Oil Red O solution (2 mg/ml) in 60% isopropanol. Cells were washed briefly in distilled water and mounted onto glass slides using water-soluble mounting medium (Aqua Pertex, Histolab products AB). For visualization, bright field images were captured at 40X magnification using an Axiovert 40 CFL inverted fluorescence microscope (Zeiss) and Axiovision Rel. 4.8 software.

[9] = Solubility in aqueous buffers (SPR running buffer); assay type: physicochemical; conditions: could not be analyzed at concentrations above 50 µM
Description: as §1

[10] = system: Burkitt's lymphoma cell line xenograft; parameters: method as in PMID 20801893; conditions: cited from earlier work

T1 sequence (P01106 368-452): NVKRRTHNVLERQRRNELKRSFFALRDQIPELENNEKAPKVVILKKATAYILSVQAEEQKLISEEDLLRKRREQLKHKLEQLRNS

| Kd [1] [µM] | Compound | Kd [2] [µM] | effect on MYCN/MAX interaction (PLA) at 112.5 µM (MYCN/MAX interaction; 112.5 µM) | effect on MYCN/MAX interaction (PLA) (MYCN/MAX interaction) | effect on MYCN protein levels (MYCN protein levels) | IC50 (Kelly cells [3]) [µM] | apoptosis induction in cells with high vs low MYCN (Tet21N cells) | antitumor activity in prostate cancer xenografts [4] | survival of TH-MYCN transgenic mice (TH-MYCN transgenic mice) | anti-tumor effects in NB xenografts (NB xenografts) | apoptosis (cell death) induction relative to 10058-F4 (SK-N-BE(2) cells [5]) | apoptosis (cell death) induction relative to 10058-F4 (Kelly cells [6]) | morphological neuronal differentiation (SK-N-BE(2) cells [7]) | lipid droplet accumulation (SK-N-BE(2) cells [8]) | solubility in aqueous buffers [9] | antitumor activity in Burkitt's lymphoma xenograft [10] |
| --- | --- | --- | --- | --- | --- | --- | --- | --- | --- | --- | --- | --- | --- | --- | --- | --- |
| 82.3 | CCc1ccc(C=C2SC(=O)NC2=O)cc1 [C-m/z 232] | 87.1 | not able to effect the MYCN/MAX interaction | did not affect MYCN/MAX dimer formation | – | – | – | – | – | – | – | – | – | – | – | – |
| – | CCc1ccc(C=C2SC(=S)NC2=O)cc1 [Compound 10058-F4, [Z,E]-5-[4-ethylbenzylidine]-2-thioxothiazolidin-4-one] | 41.9 | – | reduced the MYCN/MAX interaction | able to efficiently decrease the MYCN protein levels | 41.1 | cells with low MYCN-levels were less sensitive | no significant antitumor activity | increased the survival | showed anti-tumor effects | – | – | – | – | – | – |
| – | O=[N+]([O-])c1ccc(Nc2ccccc2-c2ccccc2)c2nonc12 [Compound 10074-G5] | 19.2 | – | reduced the MYCN/MAX interaction | decreased the MYCN protein levels at lower concentrations than 10058-F4 | 22.5 | MYCN dependent induction of apoptosis | – | – | – | more potent than 10058-F4 in inducing cell death | more potent than 10058-F4 in inducing cell death | evident neurite outgrowth | smaller but more numerous lipid droplets | especially poor solubility in aqueous buffers | failed to show any antitumor activity |
